Test results from a melting point compilation (Tetko et al.; mined from patent text by program, amines drawn as free bases though some values may be those of a salt).

Row | Compound | melting point [°C]
1 | C[C@@H]1Cc2ccccc2O[C@H]1c1ccccc1 (relative stereo) | 77 to 78
2 | O=C1CC[C@@H](C(=O)Nc2ccc(-c3ncc(C(=O)O)c(O)n3)cc2)N1 | > 300
3 | Oc1cccc2ccc(N3CCN(c4nc5ccc(C(F)(F)F)cc5[nH]4)CC3)nc12 | 191 to 193
4 | COC(=O)CCC(=O)c1ccc(C)cc1OCC1CO1 (configuration not stated) | 61.5 to 63
5 | FC(F)(F)c1sc(S)nc1Cl | 142 to 144
6 | Nc1ccc(Cl)cc1Cc1ccccc1Cl | 64 to 65
7 | CN(Cc1cccc2c1C(=O)N(C1CCC(=O)NC1=O)C2=O)C(=O)NC(C)(C)C (configuration not stated) | 188 to 190
8 | CN1CC(C(=O)COC(=O)c2cccnc2)CC2c3cccc4[nH]cc(c34)CC21 (configuration not stated) | 172 to 174
9 | CS(=O)(=O)c1ccc(-c2cnn(Cc3ccsc3)c(=O)c2-c2ccc(F)cc2)cc1 | 169 to 172
10 | C=CCOc1cc(NC(=O)C2CCCCC2C(=O)OCC)c(F)cc1Cl (configuration not stated) | 52 to 53
11 | COC(=O)C1=C(C)NC(=O)N(C(=O)Oc2ccc([N+](=O)[O-])cc2)C1c1ccc(F)c(F)c1 (configuration not stated) | 185 to 186
12 | N#Cc1c(N2CCCCC2)cc(-c2ccc(-n3cccc3)cc2)c2c1Cc1ccccc1-2 | 224 to 226
13 | O=C(O)CCc1c(Br)cccc1C(F)(F)F | 122 to 126
14 | Clc1cc(Cl)c2cccc3c2c1N=C3NCCCCn1ccnc1 | 187 to 188
15 | CCSc1nc2cc(Cl)ccc2s1 | 49 to 50
16 | CCOc1cn(C)cc(-c2cccc(C(F)(F)F)c2)c1=S | 153 to 155
17 | FC(F)(F)c1ccc(-c2cc(Oc3ccc4cc[nH]c4c3)ncn2)cc1 | 206 to 209
18 | COC(=O)c1ccccc1S(=O)(=O)NC(=O)Nc1nc(OC)n(C)n1 | 177 to 180
19 | Oc1ccc2[nH]cc(CCCCN3CCN(c4ccc5c(c4)CCCO5)CC3)c2c1 | 220 to 222
20 | COc1cc(OC)c2c(=O)c(OCCCOc3ccc(C(C)=C4SC(=O)NC4=O)cc3)c(-c3ccc(OC)c(OC)c3)oc2c1 | 198 to 200
21 | COc1cc(N)ccc1C(=O)NC1(C)CCN(CCCOc2ccc(F)cc2)CC1 | 75.5
22 | CCc1nc(Cl)cc(NC)n1 | 80 to 81
23 | COC(=O)/C(=C/c1ccc(OCCc2nc(-c3ccccc3)oc2C)c2ccsc12)OC | 165
24 | CC(=O)OCCn1cncc1[N+](=O)[O-] | 61 to 62
25 | N=c1[nH]c(=O)c2nc[nH]c2c(=O)[nH]1 | > 220
26 | NC(=O)Oc1ccccc1-c1nc2cc(F)c(OCc3c(Cl)cccc3Cl)cc2s1 | 245 to 250

Row | Compound | melting point [°C]
27 | Cc1cccc(C)c1NC(=O)CN1CCN(CC(O)CC(c2ccc(F)cc2)c2ccc(F)cc2)C(C(N)=O)C1 (configuration not stated) | 110
28 | O=[N+]([O-])c1cc(-c2cnc3ccccn23)cc(O)c1O | 110
29 | CC1C(=O)Nc2cccc3c2N1C(=O)C3c1ccccc1 (configuration not stated) | 208 to 211
30 | CN(C)c1ccc(-c2noc([C@H]3CCCN(C(=O)c4ccc(F)cc4)C3)n2)cc1 | 147 to 153
31 | OC(c1ccc(Cl)cc1)c1cc2ccncc2[nH]1 (configuration not stated) | 176 to 180
32 | CCCOc1nc2sc(Cl)cc2c(=O)n1CCC | 62 to 65
33 | CC(=O)OC(C=C(C)C=CC=C(C)C=O)OC(C)=O | 99.5
34 | O=c1ccoc2ccc(OCCCCCl)cc12 | 75 to 77
35 | O=C(O)C(CCN1C(=O)c2ccccc2C1=O)CS(=O)(=O)c1ccc(-c2ccccc2)cc1 (configuration not stated) | 180
36 | CC(=O)NC[C@H]1CN(c2ccc(C3CCN(c4nnc(C)s4)CC3)c(F)c2)C(=O)O1 | 193 to 195
37 | CC(C)OC(=O)c1cc(-n2c(=O)[nH]c3c(c2=O)CCC3)c(Cl)cc1Cl | 186 to 189
38 | COC(=O)C1=C(C)Nc2nc(N3CCOCC3)nc(N3CCOCC3)c2C1c1cccc(Cl)c1Cl (configuration not stated) | 188
39 | CCOC(=O)c1cn(Cc2cnsn2)c2c(F)c(F)c(F)cc2c1=O | 200 to 203
40 | O=C1N(Cc2cccnc2)c2ccccc2C12COc1cc(F)c(F)cc12 (configuration not stated) | 175 to 177
41 | CCc1cc(O)n2ccnc2n1 | 93 to 94
42 | NS(=O)(=O)c1cc2c(cc1Cl)NC(c1ccccc1)NS2(=O)=O (configuration not stated) | 235 to 238
43 | CCCCCCCCCCOc1cnc(-c2ccc(CCCCCC(C)OC(C)=O)cc2)nc1 (configuration not stated) | 72 to 73
44 | Cc1nc(O)nc(C)c1N1CCCn2c1nc1c(Cl)ccc(C(OC(F)F)C(F)(F)F)c12 (configuration not stated) | 208 to 210
45 | CCc1c(N)c(C(N)=O)nn1CCOC | 131
46 | CCN1C(=O)Cc2cc(Cl)cnc21 | 78 to 82
47 | COc1nc(CCc2cc(Br)ccc2OCc2ccccc2)ccc1C(=O)O | 141 to 143
48 | CCCCNc1ccc2n[nH]c(=O)n2n1 | 259 to 261
49 | CC(=O)CC(=O)N1CC(c2ccccc2)c2ccccc21 (configuration not stated) | 88 to 89
50 | CCn1c(=O)c(C#N)c(N2CCCC2)c2ccc(C)nc21 | 211 to 213
51 | CCn1nc(C)c(N)c1C(N)=O | 143 to 145
52 | Cc1c(C=CC=O)c2c(c(C)c1OCc1ccccc1)CC(C)(C)O2 | 108 to 109

Row | Compound | melting point [°C]
53 | CC(CBr)=C(C(=O)OCc1ccccc1)N1C(=O)C(Br)(Br)C1Br (configuration not stated) | 84 to 85
54 | CSC1(C)C(=O)Nc2ccc(C3=NNC(=O)SC3C)cc21 (configuration not stated) | 250
55 | COc1nc(N2CCN(C(=O)c3ccccc3C(F)(F)F)CC2)ccc1C(=O)NCCC1CC1 | 49 to 51
56 | CCCCCC1(Cl)Cc2cc(OCC(=O)O)c(Cl)c(Cl)c2C1=O (configuration not stated) | 122 to 124
57 | CCOC(=O)Nn1cccc1C(=O)c1ccc(Cl)cc1Cl | 114 to 116
58 | CC(=O)N1C(=O)C(C(=O)c2cccs2)c2ccccc21 (configuration not stated) | 139 to 140
59 | CN(Cc1ccc2c(Br)c(OCc3nnn[nH]3)ccc2c1)C(=O)c1oc2ccccc2c1CCc1ccccc1 | 56 to 59
60 | CSc1nc(Cl)c(-c2c(F)cc(F)cc2F)c(Cl)n1 | 75
61 | COC(=O)CN1CCC[C@H]1C(=O)N[C@@H](Cc1ccccc1)C(=O)N1CCC[C@H]1C(=O)O | 145 to 148
62 | CCCOc1ccc(C(=O)C=CC(=O)O)cc1OC | 136
63 | CCC(CC)c1ccc(Cl)c2nc3n(c12)CCN3c1ccc(C(N)=O)cc1Cl | 225 to 229
64 | O=C(CCc1cccc(Br)c1)c1cnc2sc3c(n12)CCCCC3 | 77 to 79
65 | CCOC(=O)c1c(C)cc2c(c1C)c(=O)n(-c1ccccc1Cl)c(=O)n2CCCN(C)C | 155 to 156
66 | CN(O)C(=O)Nc1cc(Cl)cc(Cl)c1 | 131 to 132
67 | CCOC(=O)C1=C(C)N2CCCC2=C(C(C)=O)C1c1ccccc1C#N (configuration not stated) | 167
68 | COc1ccc2c(c1)C(c1ccccc1)NC(=S)N2CC1CC1 (configuration not stated) | 146 to 147
69 | CC1(C)CC(c2ncccn2)c2cc(C#N)ccc2O1 (configuration not stated) | 109 to 111
70 | Fc1ccc2[nH]cc(C3CCC4(CC3)OCCO4)c2c1 | 183 to 185
71 | COc1ccc2c(c1)CC(C(=O)O)N2C(C)=O (configuration not stated) | 164 to 167
72 | CCCn1c(=O)c2c(nc(C=Cc3ccc(S(=O)(=O)O)cc3)n2C)n(CCC)c1=O | > 270
73 | CC(C)(C)OC(=O)NCC1CN(c2cccc(Cl)n2)C1 | 124 to 126
74 | CCc1cccc(C)c1CNc1nc(C(=O)N(C)C)cc2[nH]c(C)nc12 | 207 to 208
75 | CCCCOc1ccccc1-c1ncc(-c2nnn[nH]2)c(=O)[nH]1 | 244 to 247
76 | Cc1ccc(-c2nc(CCCCCCOC(C)(C)C#N)c(C)o2)cc1 | 36
77 | CC(/C=C/C1=C(c2ccc3c(c2)C(C)(C)CCC3(C)C)CCCC1)=C\C(=O)O | 198 to 199
78 | CCCCCC1CCc2cc(C(=O)Oc3ccc(CCCC)cc3)ccc2C1 (configuration not stated) | 48.1

Row | Compound | melting point [°C]
79 | CCSc1nc2c(C)ccnc2n1Cc1ccc(-n2cc(Cl)cc2-c2nnn[nH]2)cc1 | 88 to 90
80 | COc1cc(-c2ncc(Cl)cc2F)c(F)cc1Cl | 120 to 122
81 | COc1cccc(C=O)c1Oc1ccc([N+](=O)[O-])cc1 | 130 to 131
82 | Nc1c(Cl)cc(C(O)CNCCCCCCOCCCCc2ncccc2O)cc1Cl (configuration not stated) | 95 to 96
83 | CNC(=NC#N)NCCS(=O)Cc1nsc(NC(=N)N)n1 (configuration not stated) | 185 to 186
84 | Cc1c(Cc2ccccc2)c(=O)[nH]c2cc(O)cc(O)c12 | 307 to 312
85 | COc1ccc(C(=O)Oc2ccccc2)cc1Nc1ccccc1 | 130 to 131
86 | CC1CCC(CNc2cc3oc(=O)[nH]c3cc2F)C(C)O1 (configuration not stated) | 123 to 139
87 | C#CC1(O)CCC2C3=C(CCC21C)c1ccc(OC)cc1CC3 (configuration not stated) | 133 to 137
88 | CC(=S)NCC1CN(c2ccc(-c3csc(Cn4cnnn4)n3)c(F)c2)C(=O)O1 (configuration not stated) | 96 to 98
89 | O=S(=O)(NCCO)c1cccc(-c2cccc(-c3nc(-c4ccc(C(F)(F)F)cc4)cc(C(F)(F)F)n3)c2)c1 | 153
90 | CC1(c2cccc(C3(O)CCCCC3)c2)OCCO1 | 55 to 57
91 | CCC(OCCc1ccc(-c2ccc(Cl)cc2)cc1)C(=O)O (configuration not stated) | 90 to 92
92 | CCC(O)c1ccccc1-c1ccc(C(=O)N2Cc3ccc(C(=O)NCc4cccnc4)n3Cc3ccccc32)cc1 (configuration not stated) | 111 to 115
93 | O=c1c2cc(SC(F)(F)F)ccc2ccn2cccc12 | 155 to 159
94 | CC1(C)NC(=O)N(CC(CS(=O)(=O)C2(C(F)(F)F)C=CC(c3ccccc3)=CC2)N(O)C=O)C1=O (configuration not stated) | 206
95 | CC(C)CNC(=O)C=CC=Cc1ccc2c(c1)OCO2 | 156 to 160
96 | CCCCNc1nc(-c2ccc(F)cc2)c(-c2ccc(S(C)(=O)=O)cc2)s1 | 134 to 135
97 | CCN(CC)CCNC(=O)c1cc(Cl)c(N)cc1OCCS(C)=O (configuration not stated) | 110 to 114
98 | CN(C)Cc1cccc(OCCCNc2nc(N)nn2C)c1 | 95 to 96.5
99 | CC(Sc1nc(N)cc(Cl)n1)c1cc2ccoc2cn1 (configuration not stated) | 187 to 188
100 | O=C(O)c1c[nH]cc2c(=O)n(-c3ccccc3)nc1-2 | 287 to 302
101 | Nc1ccc(OCC(=O)OCCOC(=O)COc2ccc(N)cc2)cc1 | 124 to 126
102 | C[C@@H](CO)CCC[C@@H](C)[C@H]1C(=O)C[C@H]2[C@@H]3CC=C4C[C@@H](O)CC[C@]4(C)[C@H]3CC[C@]12C | 167 to 169
